Biological target: T1, MAGL (Homo sapiens, UniProt Q99685)
T1 sequence (Q99685 1-303): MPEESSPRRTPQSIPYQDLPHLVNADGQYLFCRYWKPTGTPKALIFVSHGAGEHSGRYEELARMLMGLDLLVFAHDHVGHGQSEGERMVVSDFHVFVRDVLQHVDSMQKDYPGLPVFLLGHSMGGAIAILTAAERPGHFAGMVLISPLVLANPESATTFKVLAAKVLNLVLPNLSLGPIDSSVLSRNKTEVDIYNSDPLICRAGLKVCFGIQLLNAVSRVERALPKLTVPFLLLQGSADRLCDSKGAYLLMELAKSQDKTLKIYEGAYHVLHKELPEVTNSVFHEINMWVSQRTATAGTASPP
Assay: 2-AG assay: MAGL inhibitory activity by hydrolysis of 2-arachidonoylglycerol to arachidonic acid, mass spectrometry
Assay type: biochemical
Conditions: 2-AG assay (values marked [b])
In short: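 Human MAGL […] was preincubated 15 min at RT with compound ([…], 3-fold steps) in 50 mM Tris, 1 mM EDTA, 0.01% Tween. 2-AG (8 μM) was then added for 30 min at RT. Arachidonic acid was quantified by RapidFire SPE–triple quadrupole MS in negative ESI as its ratio to a d8-arachidonic acid standard.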

Row | Compound | IC50 [nM]
1 | COc1cc(C(=O)N2CCN(c3nc4nc(Cl)ccc4o3)CC2)cnc1OCC1(C(F)(F)F)CC1 [Example 138, [4-(5-chlorooxazolo[4,5-b]pyridin-2-yl)piperazin-1-yl]-[5-methoxy-6-[[1-(trifluoromethyl)cyclopropyl]methoxy]-3-pyridyl]methanone] | 183
2 | Cc1ccc2oc(N3CCN(C(=O)c4ccc(OCC5(C(F)(F)F)CC5)c(C)n4)CC3)nc2n1 [Example 139, [4-(5-methyloxazolo[4,5-b]pyridin-2-yl)piperazin-1-yl]-[6-methyl-5-[[1-(trifluoromethyl)cyclopropyl]methoxy]-2-pyridyl]methanone] | 387
3 | Cc1nc(C(=O)N2CCN(c3nc4nc(Cl)ccc4o3)CC2)ccc1OCC1(C(F)(F)F)CC1 [Example 140, [4-(5-chlorooxazolo[4,5-b]pyridin-2-yl)piperazin-1-yl]-[6-methyl-5-[[1-(trifluoromethyl)cyclopropyl]methoxy]-2-pyridyl]methanone] | 326
4 | Cc1ccc2oc(N3CCN(C(=O)c4cnc(OCC5(C)CC5)c(F)c4)CC3)nc2n1 [Example 148, (5-fluoro-6-((1-methylcyclopropyl)methoxy)pyridin-3-yl)(4-(5-methyloxazolo[4,5-b]pyridin-2-yl)piperazin-1-yl)methanone] | 226
5 | CC1(COc2ncc(C(=O)N3CCN(c4nc5nc(Cl)ccc5o4)CC3)cc2Cl)CC1 [Example 149, (5-chloro-6-((1-methylcyclopropyl)methoxy)pyridin-3-yl)(4-(5-chlorooxazolo[4,5-b]pyridin-2-yl)piperazin-1-yl)methanone] | 20
6 | Cc1ccc2oc(N3CCN(C(=O)c4cnc(OCC5(C(F)(F)F)CC5)c(F)c4)CC3)nc2n1 [Example 150, (5-fluoro-6-((1-(trifluoromethyl)cyclopropyl)methoxy)pyridin-3-yl)(4-(5-methyloxazolo[4,5-b]pyridin-2-yl)piperazin-1-yl)methanone] | 46
7 | Cc1ccc2oc(N3CCN(C(=O)c4cnc(OCC5(C(F)(F)F)CC5)c(OCC5(C(F)(F)F)CC5)c4)CC3)nc2n1 [Example 151, (5,6-bis((1-(trifluoromethyl)cyclopropyl)methoxy)pyridin-3-yl)(4-(5-methyloxazolo[4,5-b]pyridin-2-yl)piperazin-1-yl)methanone] | 55
8 | O=C(c1cnc(OCC2(C(F)(F)F)CC2)c(Cl)c1)N1CCN(c2nc3nc(Cl)ccc3o2)CC1 [Example 152, (5-chloro-6-((1-(trifluoromethyl)cyclopropyl)methoxy)pyridin-3-yl)(4-(5-chlorooxazolo[4,5-b]pyridin-2-yl)piperazin-1-yl)methanone] | 15
9 | Cc1cc(C(=O)N2CCN(c3nc4nc(Cl)ccc4o3)CC2)cnc1OCC1(C(F)(F)F)CC1 [Example 153, (4-(5-chlorooxazolo[4,5-b]pyridin-2-yl)piperazin-1-yl)(5-methyl-6-((1-(trifluoromethyl)cyclopropyl)methoxy)pyridin-3-yl)methanone] | 10
10 | O=C(c1cnc(OCC2(C(F)(F)F)CC2)c(C(F)(F)F)c1)N1CCN(c2nc3nc(Cl)ccc3o2)CC1 [Example 154, (4-(5-chlorooxazolo[4,5-b]pyridin-2-yl)piperazin-1-yl)(5-(trifluoromethyl)-6-((1-(trifluoromethyl)cyclopropyl)methoxy)pyridin-3-yl)methanone] | 8
11 | Cc1cc(C(=O)N2CCN(c3nc4nc(Cl)ccc4o3)CC2)cnc1OCC1CC1 [Example 155, (4-(5-chlorooxazolo[4,5-b]pyridin-2-yl)piperazin-1-yl)(6-(cyclopropylmethoxy)-5-methylpyridin-3-yl)methanone] | 90
12 | Cc1cc(C(=O)N2CCN(c3nc4nc(Cl)ccc4o3)CC2)cnc1OCC1(C)CC1 [Example 156, (4-(5-chlorooxazolo[4,5-b]pyridin-2-yl)piperazin-1-yl)(5-methyl-6-((1-methylcyclopropyl)methoxy)pyridin-3-yl)methanone] | 21
13 | Cc1cc(C(=O)N2CCN(c3nc4nc(Cl)ccc4o3)CC2)cnc1OCC1(C)COC1 [Example 157, (4-(5-chlorooxazolo[4,5-b]pyridin-2-yl)piperazin-1-yl)(5-methyl-6-((3-methyloxetan-3-yl)methoxy)pyridin-3-yl)methanone] | 317
14 | Cc1cc(C(=O)N2CCN(c3nc4nc(Cl)ccc4o3)CC2)cnc1OCC1(C)CC1(F)F (stereo not drawn) [Example 158, (4-(5-chlorooxazolo[4,5-b]pyridin-2-yl)piperazin-1-yl)(6-((2,2-difluoro-1-methylcyclopropyl)methoxy)-5-methylpyridin-3-yl)methanone] | 11
15 | CCC1(COc2ncc(C(=O)N3CCN(c4nc5nc(Cl)ccc5o4)CC3)cc2C)COC1 [Example 159, (4-(5-chlorooxazolo[4,5-b]pyridin-2-yl)piperazin-1-yl)(6-((3-ethyloxetan-3-yl)methoxy)-5-methylpyridin-3-yl)methanone] | 117
16 | COCC1(COc2ncc(C(=O)N3CCN(c4nc5nc(Cl)ccc5o4)CC3)cc2C)CC1 [Example 160, (4-(5-chlorooxazolo[4,5-b]pyridin-2-yl)piperazin-1-yl)(6-((1-(methoxymethyl)cyclopropyl)methoxy)-5-methylpyridin-3-yl)methanone] | 295
17 | Cc1cc(C(=O)N2CCN(c3nc4nc(Cl)ccc4o3)CC2)cnc1OCC1(F)COC1 [Example 161, (4-(5-chlorooxazolo[4,5-b]pyridin-2-yl)piperazin-1-yl)(6-((3-fluorooxetan-3-yl)methoxy)-5-methylpyridin-3-yl)methanone] | 906
18 | Cc1cc(C(=O)N2CCN(c3nc4nc(Cl)ccc4o3)CC2)cnc1OCC1(CC#N)CC1 [Example 162, 2-(1-(((5-(4-(5-chlorooxazolo[4,5-b]pyridin-2-yl)piperazine-1-carbonyl)-3-methylpyridin-2-yl)oxy)methyl)cyclopropyl)acetonitrile] | 230
19 | Cc1cc(C(=O)N2CCN(c3nc4nc(Cl)ccc4o3)CC2)cnc1OCC1(C#N)CC1 [Example 163, 1-(((5-(4-(5-chlorooxazolo[4,5-b]pyridin-2-yl)piperazine-1-carbonyl)-3-methylpyridin-2-yl)oxy)methyl)cyclopropane-1-carbonitrile] | 677
20 | Cc1cc(C(=O)N2CCN(c3nc4nc(Cl)ccc4o3)CC2)cnc1OCC1(C#N)COC1 [Example 164, 3-(((5-(4-(5-chlorooxazolo[4,5-b]pyridin-2-yl)piperazine-1-carbonyl)-3-methylpyridin-2-yl)oxy)methyl)oxetane-3-carbonitrile] | 1540
21 | Cc1cc(C(=O)N2CCN(c3nc4nc(Cl)ccc4o3)CC2)cnc1OCc1cc(F)cc(C#N)c1 [Example 165, 3-(((5-(4-(5-chlorooxazolo[4,5-b]pyridin-2-yl)piperazine-1-carbonyl)-3-methylpyridin-2-yl)oxy)methyl)-5-fluorobenzonitrile] | 42
22 | Cc1cc(C(=O)N2CCN(c3nc4nc(Cl)ccc4o3)CC2)cnc1OCC1CCCO1 (stereo not drawn) [Example 166, (4-(5-chlorooxazolo[4,5-b]pyridin-2-yl)piperazin-1-yl)(5-methyl-6-((tetrahydrofuran-2-yl)methoxy)pyridin-3-yl)methanone] | 475
23 | Cc1ccc2oc(N3CCN(C(=O)c4cnc(OCC5(C(F)(F)F)CC5)c(C)n4)CC3)nc2n1 [Example 167, [4-(5-methyloxazolo[4,5-b]pyridin-2-yl)piperazin-1-yl]-[6-methyl-5-[[1-(trifluoromethyl)cyclopropyl]methoxy]pyrazin-2-yl]methanone] | 63
24 | Cc1cc(C(=O)N2CCN(c3nc4nc(Cl)ccc4o3)CC2)cnc1OCC1CCO1 (stereo not drawn) [Example 168, (4-(5-chlorooxazolo[4,5-b]pyridin-2-yl)piperazin-1-yl)(5-methyl-6-(oxetan-2-ylmethoxy)pyridin-3-yl)methanone] | 1750
25 | COc1cc(C(=O)N2CCN(c3nc4nc(C)ccc4o3)CC2)cnc1OCC1(C(F)(F)F)CC1 [Example 169, [5-methoxy-6-[[1-(trifluoromethyl)cyclopropyl]methoxy]-3-pyridyl]-[4-(5-methyloxazolo[4,5-b]pyridin-2-yl)piperazin-1-yl]methanone] | 138
26 | Cc1cc(C(=O)N2CCN(c3nc4nc(Cl)ccc4o3)CC2)cnc1OCC1CCCCO1 (stereo not drawn) [Example 170, (4-(5-chlorooxazolo[4,5-b]pyridin-2-yl)piperazin-1-yl)(5-methyl-6-((tetrahydro-2H-pyran-2-yl)methoxy)pyridin-3-yl)methanone] | 57
27 | COC1(COc2ncc(C(=O)N3CCN(c4nc5nc(Cl)ccc5o4)CC3)cc2C)CC1 [Example 171, (4-(5-chlorooxazolo[4,5-b]pyridin-2-yl)piperazin-1-yl)(6-((1-methoxycyclopropyl)methoxy)-5-methylpyridin-3-yl)methanone] | 188
28 | Cc1cc(C(=O)N2CCN(c3nc4nc(Cl)ccc4o3)CC2)cnc1OC[C@H](F)CF [Example 172, (S)-(4-(5-chlorooxazolo[4,5-b]pyridin-2-yl)piperazin-1-yl)(6-(2,3-difluoropropoxy)-5-methylpyridin-3-yl)methanone] | 978
29 | Cc1cc(C(=O)N2CCN(c3nc4nc(Cl)ccc4o3)CC2)cnc1OCCC(F)(F)F [Example 173, (4-(5-chlorooxazolo[4,5-b]pyridin-2-yl)piperazin-1-yl)(5-methyl-6-(3,3,3-trifluoropropoxy)pyridin-3-yl)methanone] | 135
30 | Cc1cc(C(=O)N2CCN(c3nc4nc(Cl)ccc4o3)CC2)cnc1OC[C@@H](F)CF [Example 174, (R)-(4-(5-chlorooxazolo[4,5-b]pyridin-2-yl)piperazin-1-yl)(6-(2,3-difluoropropoxy)-5-methylpyridin-3-yl)methanone] | 706
